US12577217B2, “15-PGDH inhibitor” (KYORIN Pharmaceutical Co., Ltd., priority 2019, dated 2026)

Each compound was assayed against T1, recombinant human 15-PGDH (Homo sapiens, UniProt P15428) (assay: 15-PGDH enzyme inhibition test). Conditions: 4 nM recombinant human 15-PGDH, 30 μM PGE2, 1 mM NAD+, 60 minutes after starting the reaction; read-out: IC50 Value.
T1 construct: purchased R&D Systems
T1 sequence (P15428 1-266): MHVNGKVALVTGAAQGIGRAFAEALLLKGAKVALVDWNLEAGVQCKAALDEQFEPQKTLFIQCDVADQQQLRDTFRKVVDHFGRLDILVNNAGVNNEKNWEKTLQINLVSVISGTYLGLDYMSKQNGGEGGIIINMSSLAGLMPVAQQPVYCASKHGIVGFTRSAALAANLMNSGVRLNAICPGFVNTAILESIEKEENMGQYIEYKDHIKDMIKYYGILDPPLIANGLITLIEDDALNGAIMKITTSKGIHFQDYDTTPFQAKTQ
Format: biochemical
Method in brief: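 4 nM recombinant human enzyme pre-incubated with compound 12 min at room temperature in 50 mM Tris-HCl pH 8.0 with 0.01% Tween 20 and 0.01% bovine gamma globulin. Reaction started with 30 μM PGE2 and 1 mM NAD+, read after 60 min by fluorescence (ex 340/em 440 nm). IC50 from concentration-response curve.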

| Structure (SMILES) | IC50 |
| --- | --- |
| COCCNC(=O)c1cnc2c(c1)OCCN2c1ccn2c(=O)n(C)nc2c1 [Example 8-105] | < 0.01 µM |
| COCCN(C)C(=O)c1cnc2c(c1)OCCN2c1ccn2c(=O)n(C)nc2c1 [Example 8-106] | < 0.01 µM |
| COCCCNC(=O)c1cnc2c(c1)OCCN2c1ccn2c(=O)n(C)nc2c1 [Example 8-107] | < 0.01 µM |
| Cn1nc2cc(N3CCOc4cc(C(=O)N5C[C@H](O)C[C@H](O)C5)cnc43)ccn2c1=O [Example 8-108] | 0.01 to 0.1 µM |
| Cn1nc2cc(N3CCOc4cc(C(=O)N5CCCC(C(F)(F)F)C5)cnc43)ccn2c1=O (stereo not shown) [Example 8-109] | < 0.01 µM |
| Cn1nc2cc(N3CCOc4cc(C(=O)N5CCCC(C)(C)C5)cnc43)ccn2c1=O [Example 8-110] | < 0.01 µM |
| C#CC1CCN(C(=O)c2cnc3c(c2)OCCN3c2ccn3c(=O)n(C)nc3c2)CC1 [Example 8-111] | < 0.01 µM |
| Cn1nc2cc(N3CCOc4cc(C(=O)N5CCC(Cl)CC5)cnc43)ccn2c1=O [Example 8-113] | < 0.01 µM |
| Cn1nc2cc(N3CCOc4cc(C(=O)N5CCC(F)CC5)cnc43)ccn2c1=O [Example 8-114] | < 0.01 µM |
| Cn1nc2cc(N3CCOc4cc(C(=O)N5CCC[C@@H](C(F)(F)F)C5)cnc43)ccn2c1=O [Example 8-115] | < 0.01 µM |
| Cn1nc2cc(N3CCOc4cc(C(=O)N5CCC[C@H](C(F)(F)F)C5)cnc43)ccn2c1=O [Example 8-116] | < 0.01 µM |
| COCn1nc2cc(N3CCCc4cc(C(=O)N5CCC(F)(F)C(C)C5)cnc43)ccn2c1=O (stereo not shown) [Example 8-117] | < 0.01 µM |
| COCn1nc2cc(N3CCCc4cc(C(=O)N5CCC[C@H](C(F)F)C5)cnc43)ccn2c1=O [Example 8-118] | < 0.01 µM |
| COCn1nc2cc(N3CCCc4cc(C(=O)N5CCC[C@@H](C(F)F)C5)cnc43)ccn2c1=O [Example 8-119] | < 0.01 µM |
| COCn1nc2cc(N3CCCc4cc(C(=O)N5CC[C@H](C)C5)cnc43)ccn2c1=O [Example 8-120] | < 0.01 µM |
| COCn1nc2cc(N3CCCc4cc(C(=O)N5CC[C@@H](C)C5)cnc43)ccn2c1=O [Example 8-121] | < 0.01 µM |
| Cn1nc2cc(N3CCCc4cc(C(=O)N5CCC5)cnc43)ccn2c1=O [Example 8-122] | < 0.01 µM |
| Cn1nc2cc(N3CCCc4cc(C(=O)N5CCCC5)cnc43)ccn2c1=O [Example 8-123] | < 0.01 µM |
| Cn1nc2cc(N3CCCc4cc(C(=O)N5CCCCCC5)cnc43)ccn2c1=O [Example 8-124] | < 0.01 µM |
| Cn1nc2cc(N3CCCc4cc(C(=O)N5CCCCCCC5)cnc43)ccn2c1=O [Example 8-125] | < 0.01 µM |
| Cn1nc2cc(N3CCCc4cc(C(=O)N5CCOCC5)cnc43)ccn2c1=O [Example 8-126] | 0.01 to 0.1 µM |
| CN1CCN(C(=O)c2cnc3c(c2)CCCN3c2ccn3c(=O)n(C)nc3c2)CC1 [Example 8-127] | 0.01 to 0.1 µM |
| CC(=O)N1CCN(C(=O)c2cnc3c(c2)CCCN3c2ccn3c(=O)n(C)nc3c2)CC1 [Example 8-128] | > 0.1 µM |
| Cn1nc2cc(N3CCCc4cc(C(=O)N5CC=CCC5)cnc43)ccn2c1=O [Example 8-129] | < 0.01 µM |

| Structure (SMILES) | IC50 |
| --- | --- |
| Cn1nc2cc(N3CCCc4cc(C(=O)N5CCc6ccccc6C5)cnc43)ccn2c1=O [Example 8-130] | < 0.01 µM |
| Cn1nc2cc(N3CCCc4cc(C(=O)N5Cc6ccccc6C5)cnc43)ccn2c1=O [Example 8-131] | < 0.01 µM |
| C[C@@H]1CCCCN1C(=O)c1cnc2c(c1)CCCN2c1ccn2c(=O)n(C)nc2c1 [Example 8-132] | < 0.01 µM |
| C[C@H]1CCCCN1C(=O)c1cnc2c(c1)CCCN2c1ccn2c(=O)n(C)nc2c1 [Example 8-133] | < 0.01 µM |
| C[C@@H]1CCCN(C(=O)c2cnc3c(c2)CCCN3c2ccn3c(=O)n(C)nc3c2)C1 [Example 8-134] | < 0.01 µM |
| C[C@H]1CCCN(C(=O)c2cnc3c(c2)CCCN3c2ccn3c(=O)n(C)nc3c2)C1 [Example 8-135] | < 0.01 µM |
| CC1CCN(C(=O)c2cnc3c(c2)CCCN3c2ccn3c(=O)n(C)nc3c2)CC1 [Example 8-136] | < 0.01 µM |
| Cn1nc2cc(N3CCCc4cc(C(=O)N5CCC[C@@H](F)C5)cnc43)ccn2c1=O [Example 8-137] | < 0.01 µM |
| Cn1nc2cc(N3CCCc4cc(C(=O)N5CCC[C@H](F)C5)cnc43)ccn2c1=O [Example 8-138] | < 0.01 µM |
| Cn1nc2cc(N3CCCc4cc(C(=O)N5CCCC(F)(F)C5)cnc43)ccn2c1=O [Example 8-139] | < 0.01 µM |
| Cn1nc2cc(N3CCCc4cc(C(=O)N5CCC(F)CC5)cnc43)ccn2c1=O [Example 8-140] | < 0.01 µM |
| Cn1nc2cc(N3CCCc4cc(C(=O)N5CCCC(C)(F)C5)cnc43)ccn2c1=O (stereo not shown) [Example 8-141] | < 0.01 µM |
| Cn1nc2cc(N3CCCc4cc(C(=O)N5CCC[C@@H](C(F)F)C5)cnc43)ccn2c1=O [Example 8-142] | < 0.01 µM |
| Cn1nc2cc(N3CCCc4cc(C(=O)N5CCC[C@H](C(F)F)C5)cnc43)ccn2c1=O [Example 8-143] | < 0.01 µM |
| CC1CN(C(=O)c2cnc3c(c2)CCCN3c2ccn3c(=O)n(C)nc3c2)CCC1(F)F (stereo not shown) [Example 8-144] | < 0.01 µM |
| Cn1nc2cc(N3CCCc4cc(C(=O)N5CCC[C@@H](C(F)(F)F)C5)cnc43)ccn2c1=O [Example 8-145] | 0.01 to 0.1 µM |
| Cn1nc2cc(N3CCCc4cc(C(=O)N5CCC[C@H](C(F)(F)F)C5)cnc43)ccn2c1=O [Example 8-146] | < 0.01 µM |
| CCn1nc2cc(N3CCCc4cc(C(=O)N5CCC5)cnc43)ccn2c1=O [Example 8-147] | < 0.01 µM |
| CCn1nc2cc(N3CCCc4cc(C(=O)N5CCCC5)cnc43)ccn2c1=O [Example 8-148] | < 0.01 µM |
| CCn1nc2cc(N3CCCc4cc(C(=O)N5CCCCCC5)cnc43)ccn2c1=O [Example 8-149] | < 0.01 µM |
| CCn1nc2cc(N3CCCc4cc(C(=O)N5CCCCCCC5)cnc43)ccn2c1=O [Example 8-150] | < 0.01 µM |
| CCn1nc2cc(N3CCCc4cc(C(=O)N5CCOCC5)cnc43)ccn2c1=O [Example 8-151] | 0.01 to 0.1 µM |
| CCn1nc2cc(N3CCCc4cc(C(=O)N5CCN(C)CC5)cnc43)ccn2c1=O [Example 8-152] | 0.01 to 0.1 µM |
| CCn1nc2cc(N3CCCc4cc(C(=O)N5CCN(C(C)=O)CC5)cnc43)ccn2c1=O [Example 8-153] | > 0.1 µM |

| Structure (SMILES) | IC50 |
| --- | --- |
| CCn1nc2cc(N3CCCc4cc(C(=O)N5CC=CCC5)cnc43)ccn2c1=O [Example 8-154] | < 0.01 µM |
| CCn1nc2cc(N3CCCc4cc(C(=O)N5CCc6ccccc6C5)cnc43)ccn2c1=O [Example 8-155] | < 0.01 µM |
| CCn1nc2cc(N3CCCc4cc(C(=O)N5Cc6ccccc6C5)cnc43)ccn2c1=O [Example 8-156] | < 0.01 µM |
| CCn1nc2cc(N3CCCc4cc(C(=O)N5CCCC[C@H]5C)cnc43)ccn2c1=O [Example 8-157] | 0.01 to 0.1 µM |
| CCn1nc2cc(N3CCCc4cc(C(=O)N5CCCC[C@@H]5C)cnc43)ccn2c1=O [Example 8-158] | < 0.01 µM |
| CCn1nc2cc(N3CCCc4cc(C(=O)N5CCC[C@@H](C)C5)cnc43)ccn2c1=O [Example 8-159] | < 0.01 µM |
| CCn1nc2cc(N3CCCc4cc(C(=O)N5CCC[C@H](C)C5)cnc43)ccn2c1=O [Example 8-160] | < 0.01 µM |
| CCn1nc2cc(N3CCCc4cc(C(=O)N5CCC(C)CC5)cnc43)ccn2c1=O [Example 8-161] | < 0.01 µM |
| CCn1nc2cc(N3CCCc4cc(C(=O)N5CCC[C@@H](F)C5)cnc43)ccn2c1=O [Example 8-162] | < 0.01 µM |
| CCn1nc2cc(N3CCCc4cc(C(=O)N5CCC[C@H](F)C5)cnc43)ccn2c1=O [Example 8-163] | < 0.01 µM |
| CCn1nc2cc(N3CCCc4cc(C(=O)N5CCCC(F)(F)C5)cnc43)ccn2c1=O [Example 8-164] | < 0.01 µM |
| CCn1nc2cc(N3CCCc4cc(C(=O)N5CCC(F)CC5)cnc43)ccn2c1=O [Example 8-165] | < 0.01 µM |
| CCn1nc2cc(N3CCCc4cc(C(=O)N5CCCC(C)(F)C5)cnc43)ccn2c1=O (stereo not shown) [Example 8-166] | < 0.01 µM |
| CCn1nc2cc(N3CCCc4cc(C(=O)N5CCC[C@@H](C(F)F)C5)cnc43)ccn2c1=O [Example 8-167] | < 0.01 µM |
| CCn1nc2cc(N3CCCc4cc(C(=O)N5CCC[C@H](C(F)F)C5)cnc43)ccn2c1=O [Example 8-168] | < 0.01 µM |
| CCn1nc2cc(N3CCCc4cc(C(=O)N5CCC(F)(F)C(C)C5)cnc43)ccn2c1=O (stereo not shown) [Example 8-169] | < 0.01 µM |
| CCn1nc2cc(N3CCCc4cc(C(=O)N5CCC[C@@H](C(F)(F)F)C5)cnc43)ccn2c1=O [Example 8-170] | 0.01 to 0.1 µM |
| CCn1nc2cc(N3CCCc4cc(C(=O)N5CCC[C@H](C(F)(F)F)C5)cnc43)ccn2c1=O [Example 8-171] | < 0.01 µM |
| Cn1nc2cc(N3CCOc4cc(C(=O)N5CCCCC5(C)C)cnc43)ccn2c1=O [Example 8-172] | > 0.1 µM |
| Cn1nc2cc(N3CCOc4cc(C(=O)N5CCCC5(C)C)cnc43)ccn2c1=O [Example 8-173] | 0.01 to 0.1 µM |
| Cn1nc2cc(N3CCOc4cc(C(=O)NCCCO)cnc43)ccn2c1=O [Example 8-174] | 0.01 to 0.1 µM |
| CN(CCCO)C(=O)c1cnc2c(c1)OCCN2c1ccn2c(=O)n(C)nc2c1 [Example 8-175] | 0.01 to 0.1 µM |
| Cn1nc2cc(N3CCOc4cc(C(=O)NCCCCO)cnc43)ccn2c1=O [Example 8-176] | 0.01 to 0.1 µM |
| CN(CCCCO)C(=O)c1cnc2c(c1)OCCN2c1ccn2c(=O)n(C)nc2c1 [Example 8-177] | > 0.1 µM |

Same assay, conditions: IC50 Value, 4 nM recombinant human 15-PGDH, 30 μM PGE2, 1 mM NAD+, 60 minutes after starting the reaction

| Structure (SMILES) | IC50 |
| --- | --- |
| Cn1nc2cc(N3CCOc4cc(C(=O)N5CCC(=O)CC5)cnc43)ccn2c1=O [Example 8-112] | 0.01 to 0.1 µM |
